From patent US20220317138A1, “METHODS FOR DETERMINING THE CONCENTRATION OF A CARBAPENEM ANTIBIOTIC IN A BIOLOGICAL SAMPLE” (priority 2019, published 2022)
Read-outs that look alike come from different tables or passages of the source. Numbered stars: 1 amine (or outer) side, 2 acyl side, 3 side chain; on linkers, the order of the positions; unused ones are H or OH. Bridge positions count the residues as written; N and C are the ends. Square brackets hold non-standard residues; d marks the D form. Peptide text beside a SMILES is read from it. * marks the point of attachment. pTerphenylCO(4''-OnC5H11) = CCCCCOc1ccc(-c2ccc(-c3ccc(C(=O)*)cc3)cc2)cc1; Orn(4R-OH,5R-OH) = O=C([C@H](C[C@@H](O)[C@@H](O)N[*:3])N[*:1])[*:2]; hTyr(3S-OH,4S-OH) = N[C@H](C(=O)O)[C@H](O)[C@@H](O)c1ccc(O)cc1; Pro(3S-OH,4S-Me) = C[C@H]1CN[C@H](C(=O)O)[C@H]1O; Hyp = O=C(O)[C@@H]1C[C@@H](O)CN1

Molecular target: beta-lactamase class D OXA-48 (Klebsiella pneumoniae, UniProt Q6XEC0)
Type: biochemical
Conditions: for Average [meropenem]: average of three replicates
[1] = second drug alone in ultrafiltrated serum at 10 times recommended blood concentration, result expressed as meropenem concentration, theoretically zero
[2] = second drug alone in ultrafiltrated serum at 10 times recommended blood concentration, result expressed as meropenem concentration, theoretically zero, replicate 1
[3] = second drug alone in ultrafiltrated serum at 10 times recommended blood concentration, result expressed as meropenem concentration, theoretically zero, replicate 2
[4] = second drug alone in ultrafiltrated serum at 10 times recommended blood concentration, result expressed as meropenem concentration, theoretically zero, replicate 3
[5] = second drug alone in ultrafiltrated serum at 10 times recommended blood concentration, […]

beta-lactamase class D OXA-48, sequence (Q6XEC0 23-265 limits assumed): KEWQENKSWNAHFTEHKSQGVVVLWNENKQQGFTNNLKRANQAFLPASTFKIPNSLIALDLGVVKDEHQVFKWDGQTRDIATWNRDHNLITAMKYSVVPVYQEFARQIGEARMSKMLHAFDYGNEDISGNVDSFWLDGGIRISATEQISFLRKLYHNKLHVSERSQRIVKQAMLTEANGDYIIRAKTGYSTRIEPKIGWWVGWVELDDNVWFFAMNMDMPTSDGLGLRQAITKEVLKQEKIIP

SMILES | Average [meropenem] [1] | [meropenem] (mg/L) Replicates 1 [2] | [meropenem] (mg/L) Replicates 2 [3] | [meropenem] (mg/L) Replicates 3 [4] | [meropenem] (mg/L) Replicates 1 | [meropenem] (mg/L) Replicates 2 | [meropenem] (mg/L) Replicates 3 | Average [meropenem] [5]
CNCC(O)c1ccc(O)c(O)c1 (stereo not shown) [Adrenaline] | -0.10 mg/L | 0.06 mg/L | -0.37 mg/L | 0.00 mg/L | – | – | – | –
CCCCCOc1ccc(-c2ccc(-c3ccc(C(=O)N[C@H]4C[C@@H](O)[C@@H](O)NC(=O)[C@@H]5[C@@H](O)[C@@H](C)CN5C(=O)[C@H]([C@@H](C)O)NC(=O)[C@H]([C@H](O)[C@@H](O)c5ccc(O)cc5)NC(=O)[C@@H]5C[C@@H](O)CN5C(=O)[C@H]([C@@H](C)O)NC4=O)cc3)cc2)cc1 [Anidulafungin] ({pTerphenylCO(4''-OnC5H11)}-[Orn(4R-OH,5R-OH)]T[Hyp][hTyr(3S-OH,4S-OH)]T[Pro(3S-OH,4S-Me)]; lactam 1-C) | – | – | – | – | 0.09 mg/L | 0.06 mg/L | 0.14 mg/L | 0.10 mg/L
[Ca+2].[Cl-].[Cl-] [Calciclo] | – | – | – | – | 0.05 mg/L | -0.04 mg/L | -0.09 mg/L | -0.03 mg/L
CC[C@H](C)C[C@H](C)CCCCCCCCC(=O)N[C@H]1C[C@@H](O)[C@@H](NCCN)NC(=O)[C@@H]2[C@@H](O)CCN2C(=O)[C@H]([C@H](O)CCN)NC(=O)[C@H]([C@H](O)[C@@H](O)c2ccc(O)cc2)NC(=O)[C@@H]2C[C@@H](O)CN2C(=O)[C@H]([C@@H](C)O)NC1=O [Caspofungin] | – | – | – | – | 0.03 mg/L | 0.06 mg/L | 0.07 mg/L | 0.05 mg/L
O=C1CN=C(c2ccccc2Cl)c2cc([N+](=O)[O-])ccc2N1 [Clonazepam] | 0.05 mg/L | 0.06 mg/L | 0.06 mg/L | 0.01 mg/L | – | – | – | –
CCCCc1oc2ccccc2c1C(=O)c1cc(I)c(OCCN(CC)CC)c(I)c1 [Cordarone] | -0.16 mg/L | -0.16 mg/L | -0.15 mg/L | -0.18 mg/L | – | – | – | –
CCCC(CCC)C(=O)[O-].[Na+] [Dapakine] | – | – | – | – | -0.10 mg/L | -0.10 mg/L | -0.09 mg/L | -0.09 mg/L
CN1C(=O)CN=C(c2ccccc2)c2cc(Cl)ccc21 [Diazepam] | 0.03 mg/L | 0.05 mg/L | 0.04 mg/L | 0.01 mg/L | – | – | – | –
O=C1NC(=O)C(c2ccccc2)(c2ccccc2)N1 [Diphantoïne] | – | – | – | – | -0.15 mg/L | -0.11 mg/L | 0.02 mg/L | -0.08 mg/L
CC(CCc1ccc(O)cc1)NCCc1ccc(O)c(O)c1 (stereo not shown) [Dobutrex] | -0.11 mg/L | -0.07 mg/L | -0.11 mg/L | -0.14 mg/L | – | – | – | –
NCCc1ccc(O)c(O)c1 [Dopamine] | -0.06 mg/L | -0.05 mg/L | -0.06 mg/L | -0.07 mg/L | – | – | – | –
OC(Cn1cncn1)(Cn1cncn1)c1ccc(F)cc1F [Fluconazole] | 0.07 mg/L | 0.02 mg/L | 0.10 mg/L | 0.11 mg/L | – | – | – | –
CC[C@@H](C(N)=O)N1CCCC1=O [Keppra] | -0.07 mg/L | -0.07 mg/L | -0.07 mg/L | -0.06 mg/L | – | – | – | –
NS(=O)(=O)c1cc(C(=O)O)c(NCc2ccco2)cc1Cl [Lasix] | -0.12 mg/L | -0.13 mg/L | -0.15 mg/L | -0.09 mg/L | – | – | – | –
Cc1ncc2n1-c1ccc(Cl)cc1C(c1ccccc1F)=NC2 [Midazolam Braun] | – | – | – | – | -0.07 mg/L | -0.09 mg/L | -0.06 mg/L | -0.07 mg/L
Cc1[nH]c(=O)c(C#N)cc1-c1ccncc1 [Milrinone] | 0.09 mg/L | 0.14 mg/L | 0.06 mg/L | 0.06 mg/L | – | – | – | –
CN1CC[C@]23c4c5ccc(O)c4O[C@H]2[C@@H](O)C=C[C@H]3[C@H]1C5 [Morphine] | -0.13 mg/L | -0.12 mg/L | -0.15 mg/L | -0.10 mg/L | – | – | – | –
COc1ccc(C[C@@H]2c3cc(OC)c(OC)cc3CC[N@+]2(C)CCC(=O)OCCCCCOC(=O)CC[N@@+]2(C)CCc3cc(OC)c(OC)cc3[C@H]2Cc2ccc(OC)c(OC)c2)cc1OC [Nimbex] | -0.03 mg/L | 0.01 mg/L | -0.04 mg/L | -0.08 mg/L | – | – | – | –
NC[C@H](O)c1ccc(O)c(O)c1 [Noradrenaline] | -0.11 mg/L | -0.12 mg/L | -0.12 mg/L | -0.08 mg/L | – | – | – | –
COc1ccnc(C[S+]([O-])c2nc3cc(OC(F)F)ccc3[nH]2)c1OC (stereo not shown) [Pantomed] | – | – | – | – | 0.02 mg/L | 0.01 mg/L | -0.05 mg/L | -0.01 mg/L
C=CC[C@@H]1/C=C(\C)C[C@H](C)C[C@H](OC)[C@H]2O[C@@](O)(C(=O)C(=O)N3CCCC[C@H]3C(=O)O[C@H](/C(C)=C/[C@@H]3CC[C@@H](O)[C@H](OC)C3)[C@H](C)[C@@H](O)CC1=O)[C@H](C)C[C@@H]2OC.O [Prograft] | – | – | – | – | -0.07 mg/L | -0.06 mg/L | -0.02 mg/L | -0.05 mg/L
COC(=O)C1=C(C)NC(C)=C(C(=O)OCCN(C)Cc2ccccc2)C1c1cccc([N+](=O)[O-])c1 (stereo not shown) [Rydene] | 0.04 mg/L | 0.06 mg/L | 0.00 mg/L | 0.06 mg/L | – | – | – | –
CC(C)(C)NCC(O)c1ccc(O)c(CO)c1 (stereo not shown) [Salbutamol] | 0.09 mg/L | 0.16 mg/L | 0.07 mg/L | 0.05 mg/L | – | – | – | –
C[C@H]1C[C@@H]2[C@H]([C@@H](O)C[C@@]3(C)[C@H]2CC[C@]3(O)C(=O)COC(=O)CCC(=O)O)[C@@]2(C)C=CC(=O)C=C12 [Solu-Medrol] | 0.01 mg/L | -0.01 mg/L | 0.02 mg/L | 0.01 mg/L | – | – | – | –
C[C@]12CCC(=O)C=C1CC[C@@H]1[C@@H]2[C@@H](O)C[C@@]2(C)[C@H]1CC[C@]2(O)C(=O)COC(=O)CCC(=O)O [Solu-cortef] | -0.03 mg/L | -0.10 mg/L | 0.02 mg/L | 0.00 mg/L | – | – | – | –
